Laboratory results published in ChEMBL document CHEMBL4507291 (2021).

Experiments:
[1] = target: Receptor-type tyrosine-protein kinase FLT3 (Homo sapiens) (UniProt P36888)
[2] = target: Serine/threonine-protein kinase Nek7 (Homo sapiens) (UniProt Q8TDX7)
[3] = target: T1, NUAK family SNF1-like kinase 1 (Homo sapiens) (UniProt O60285)
T1 sequence (whole entry): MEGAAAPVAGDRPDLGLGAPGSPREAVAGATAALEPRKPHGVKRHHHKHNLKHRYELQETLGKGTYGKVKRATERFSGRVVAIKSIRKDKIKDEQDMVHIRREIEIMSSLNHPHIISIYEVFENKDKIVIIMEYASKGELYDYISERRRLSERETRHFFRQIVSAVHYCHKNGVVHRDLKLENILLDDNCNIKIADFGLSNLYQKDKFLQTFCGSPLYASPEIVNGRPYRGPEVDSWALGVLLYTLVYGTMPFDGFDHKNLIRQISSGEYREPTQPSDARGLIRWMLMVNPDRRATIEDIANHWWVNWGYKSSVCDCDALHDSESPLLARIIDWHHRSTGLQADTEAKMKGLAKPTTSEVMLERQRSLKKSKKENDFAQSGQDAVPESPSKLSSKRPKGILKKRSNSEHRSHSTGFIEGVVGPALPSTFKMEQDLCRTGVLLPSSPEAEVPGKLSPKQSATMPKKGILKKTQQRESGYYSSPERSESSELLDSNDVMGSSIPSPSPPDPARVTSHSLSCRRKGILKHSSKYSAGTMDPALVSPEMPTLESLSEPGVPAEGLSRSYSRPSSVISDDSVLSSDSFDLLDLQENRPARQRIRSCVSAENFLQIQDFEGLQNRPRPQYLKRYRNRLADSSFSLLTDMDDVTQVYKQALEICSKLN

[4] = target: T2, G protein-coupled receptor kinase 3 (Homo sapiens) (UniProt P35626)
T2 sequence (whole entry): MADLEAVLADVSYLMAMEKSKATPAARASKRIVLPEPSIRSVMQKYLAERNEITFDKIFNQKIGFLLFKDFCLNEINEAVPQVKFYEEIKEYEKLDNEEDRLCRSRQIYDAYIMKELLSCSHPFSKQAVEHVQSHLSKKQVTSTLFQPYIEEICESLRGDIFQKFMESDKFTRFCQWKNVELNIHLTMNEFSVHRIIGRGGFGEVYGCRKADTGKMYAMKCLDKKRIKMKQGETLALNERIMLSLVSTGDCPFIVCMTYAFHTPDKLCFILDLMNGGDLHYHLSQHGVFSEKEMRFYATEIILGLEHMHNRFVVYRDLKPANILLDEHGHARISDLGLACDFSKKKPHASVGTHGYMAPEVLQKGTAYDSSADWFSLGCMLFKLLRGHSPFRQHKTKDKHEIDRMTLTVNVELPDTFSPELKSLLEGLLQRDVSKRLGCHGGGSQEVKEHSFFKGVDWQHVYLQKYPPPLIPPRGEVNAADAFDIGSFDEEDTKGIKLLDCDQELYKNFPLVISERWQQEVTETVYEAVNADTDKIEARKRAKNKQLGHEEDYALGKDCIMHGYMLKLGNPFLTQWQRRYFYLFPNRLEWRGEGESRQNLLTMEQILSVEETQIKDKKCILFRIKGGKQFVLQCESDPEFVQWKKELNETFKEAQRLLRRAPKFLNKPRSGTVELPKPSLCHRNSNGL

[5] = target: T3, Serine/threonine-protein kinase Nek1 (Homo sapiens) (UniProt Q96PY6)
T3 sequence (whole entry): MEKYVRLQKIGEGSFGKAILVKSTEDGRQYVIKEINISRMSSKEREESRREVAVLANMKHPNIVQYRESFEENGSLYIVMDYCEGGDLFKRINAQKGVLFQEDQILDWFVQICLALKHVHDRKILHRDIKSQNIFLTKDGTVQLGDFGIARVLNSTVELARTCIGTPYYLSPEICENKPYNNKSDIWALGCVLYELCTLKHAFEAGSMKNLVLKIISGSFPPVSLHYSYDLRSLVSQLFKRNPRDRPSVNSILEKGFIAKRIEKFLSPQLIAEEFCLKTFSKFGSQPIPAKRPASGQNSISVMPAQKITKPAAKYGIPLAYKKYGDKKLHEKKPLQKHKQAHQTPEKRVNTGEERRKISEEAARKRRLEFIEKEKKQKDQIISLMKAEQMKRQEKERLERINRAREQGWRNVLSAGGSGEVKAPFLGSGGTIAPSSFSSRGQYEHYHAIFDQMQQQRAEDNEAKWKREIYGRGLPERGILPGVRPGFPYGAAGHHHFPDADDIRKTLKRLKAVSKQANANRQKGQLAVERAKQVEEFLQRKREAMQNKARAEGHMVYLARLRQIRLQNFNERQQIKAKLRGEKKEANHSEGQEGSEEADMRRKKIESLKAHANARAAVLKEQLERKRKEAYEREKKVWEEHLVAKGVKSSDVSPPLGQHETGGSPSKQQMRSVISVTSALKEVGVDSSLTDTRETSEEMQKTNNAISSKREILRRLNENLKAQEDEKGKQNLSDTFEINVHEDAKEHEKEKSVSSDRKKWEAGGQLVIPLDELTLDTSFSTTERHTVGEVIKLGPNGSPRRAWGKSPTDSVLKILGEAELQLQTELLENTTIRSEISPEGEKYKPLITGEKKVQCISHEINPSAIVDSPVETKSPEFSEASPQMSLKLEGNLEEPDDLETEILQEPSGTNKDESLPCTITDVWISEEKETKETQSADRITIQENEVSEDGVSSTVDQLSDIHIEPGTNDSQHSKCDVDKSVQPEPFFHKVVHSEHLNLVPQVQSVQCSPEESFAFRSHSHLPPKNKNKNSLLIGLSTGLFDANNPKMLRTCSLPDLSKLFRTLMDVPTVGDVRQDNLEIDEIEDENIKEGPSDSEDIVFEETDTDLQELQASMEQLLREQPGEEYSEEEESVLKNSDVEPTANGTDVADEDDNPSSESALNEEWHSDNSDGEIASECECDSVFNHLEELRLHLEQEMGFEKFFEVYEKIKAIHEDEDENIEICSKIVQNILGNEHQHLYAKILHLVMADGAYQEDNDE

[6] = target: Ribosomal protein S6 kinase alpha-3 (Homo sapiens) (UniProt P51812)
Ribosomal protein S6 kinase alpha-3 (Homo sapiens), sequence (P51812 whole entry): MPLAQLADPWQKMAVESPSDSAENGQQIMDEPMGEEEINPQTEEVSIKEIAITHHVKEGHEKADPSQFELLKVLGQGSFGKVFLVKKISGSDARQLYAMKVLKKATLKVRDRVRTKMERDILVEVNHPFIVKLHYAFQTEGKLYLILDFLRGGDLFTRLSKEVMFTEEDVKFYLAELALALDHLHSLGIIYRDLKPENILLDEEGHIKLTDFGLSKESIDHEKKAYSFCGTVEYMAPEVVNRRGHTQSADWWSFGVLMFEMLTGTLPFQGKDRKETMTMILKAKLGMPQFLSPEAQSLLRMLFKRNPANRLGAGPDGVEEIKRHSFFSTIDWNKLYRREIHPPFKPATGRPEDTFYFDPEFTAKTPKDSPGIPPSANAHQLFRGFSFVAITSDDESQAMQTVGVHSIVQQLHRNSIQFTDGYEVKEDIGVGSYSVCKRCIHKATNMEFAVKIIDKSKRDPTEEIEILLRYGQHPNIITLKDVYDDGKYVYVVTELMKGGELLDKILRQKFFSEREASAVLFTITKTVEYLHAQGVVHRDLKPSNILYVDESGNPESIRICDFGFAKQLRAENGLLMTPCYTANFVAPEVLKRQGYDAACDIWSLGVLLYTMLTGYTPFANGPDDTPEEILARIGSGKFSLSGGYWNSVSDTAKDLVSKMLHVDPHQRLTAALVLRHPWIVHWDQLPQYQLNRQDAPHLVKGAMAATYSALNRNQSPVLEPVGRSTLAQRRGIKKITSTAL

[7] = target: Platelet-derived growth factor receptor beta (Homo sapiens) (UniProt P09619)
Platelet-derived growth factor receptor beta (Homo sapiens), sequence (P09619 whole entry): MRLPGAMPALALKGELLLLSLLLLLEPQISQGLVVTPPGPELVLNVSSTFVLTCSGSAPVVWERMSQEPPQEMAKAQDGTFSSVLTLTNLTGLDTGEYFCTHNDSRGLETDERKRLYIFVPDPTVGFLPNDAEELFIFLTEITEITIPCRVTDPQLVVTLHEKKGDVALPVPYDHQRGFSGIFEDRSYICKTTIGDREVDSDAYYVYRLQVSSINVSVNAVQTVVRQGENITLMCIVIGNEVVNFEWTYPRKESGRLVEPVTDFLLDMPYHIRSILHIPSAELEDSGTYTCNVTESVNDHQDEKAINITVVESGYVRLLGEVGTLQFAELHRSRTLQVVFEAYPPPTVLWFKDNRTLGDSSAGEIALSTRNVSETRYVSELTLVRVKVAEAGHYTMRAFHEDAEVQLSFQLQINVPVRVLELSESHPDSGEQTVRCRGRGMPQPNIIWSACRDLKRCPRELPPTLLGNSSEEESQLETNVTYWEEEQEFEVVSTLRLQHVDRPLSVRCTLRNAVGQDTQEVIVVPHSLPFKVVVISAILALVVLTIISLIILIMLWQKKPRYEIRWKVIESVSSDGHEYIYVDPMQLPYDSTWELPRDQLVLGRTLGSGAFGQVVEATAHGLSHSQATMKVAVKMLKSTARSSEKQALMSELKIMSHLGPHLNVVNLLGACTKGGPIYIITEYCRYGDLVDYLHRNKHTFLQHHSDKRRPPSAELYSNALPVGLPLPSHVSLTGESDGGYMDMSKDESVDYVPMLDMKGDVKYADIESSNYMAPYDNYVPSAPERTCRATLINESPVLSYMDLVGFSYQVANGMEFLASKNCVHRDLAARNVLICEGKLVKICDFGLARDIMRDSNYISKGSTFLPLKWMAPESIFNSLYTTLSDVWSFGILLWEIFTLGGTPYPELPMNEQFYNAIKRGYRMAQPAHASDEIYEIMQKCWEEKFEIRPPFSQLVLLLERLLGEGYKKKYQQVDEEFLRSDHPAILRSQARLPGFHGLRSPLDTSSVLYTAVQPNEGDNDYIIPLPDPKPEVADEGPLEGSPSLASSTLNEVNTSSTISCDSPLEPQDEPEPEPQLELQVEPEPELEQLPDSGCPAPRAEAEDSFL

[8] = Compound concentration 1000.0 nM
[9] = Compound concentration 100.0 nM

Measured: residual activity

Serine/threonine-protein kinase Nek7 (Homo sapiens), sequence (Q8TDX7 whole entry, looked up): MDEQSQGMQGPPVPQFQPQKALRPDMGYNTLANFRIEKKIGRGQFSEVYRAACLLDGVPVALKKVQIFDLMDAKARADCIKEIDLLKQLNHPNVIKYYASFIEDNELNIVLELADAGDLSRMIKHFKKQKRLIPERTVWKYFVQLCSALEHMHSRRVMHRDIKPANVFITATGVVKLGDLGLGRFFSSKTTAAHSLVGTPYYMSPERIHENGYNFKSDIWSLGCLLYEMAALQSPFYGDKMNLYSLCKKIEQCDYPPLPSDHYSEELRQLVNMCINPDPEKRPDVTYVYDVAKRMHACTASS
Receptor-type tyrosine-protein kinase FLT3 (Homo sapiens), sequence (P36888 whole entry): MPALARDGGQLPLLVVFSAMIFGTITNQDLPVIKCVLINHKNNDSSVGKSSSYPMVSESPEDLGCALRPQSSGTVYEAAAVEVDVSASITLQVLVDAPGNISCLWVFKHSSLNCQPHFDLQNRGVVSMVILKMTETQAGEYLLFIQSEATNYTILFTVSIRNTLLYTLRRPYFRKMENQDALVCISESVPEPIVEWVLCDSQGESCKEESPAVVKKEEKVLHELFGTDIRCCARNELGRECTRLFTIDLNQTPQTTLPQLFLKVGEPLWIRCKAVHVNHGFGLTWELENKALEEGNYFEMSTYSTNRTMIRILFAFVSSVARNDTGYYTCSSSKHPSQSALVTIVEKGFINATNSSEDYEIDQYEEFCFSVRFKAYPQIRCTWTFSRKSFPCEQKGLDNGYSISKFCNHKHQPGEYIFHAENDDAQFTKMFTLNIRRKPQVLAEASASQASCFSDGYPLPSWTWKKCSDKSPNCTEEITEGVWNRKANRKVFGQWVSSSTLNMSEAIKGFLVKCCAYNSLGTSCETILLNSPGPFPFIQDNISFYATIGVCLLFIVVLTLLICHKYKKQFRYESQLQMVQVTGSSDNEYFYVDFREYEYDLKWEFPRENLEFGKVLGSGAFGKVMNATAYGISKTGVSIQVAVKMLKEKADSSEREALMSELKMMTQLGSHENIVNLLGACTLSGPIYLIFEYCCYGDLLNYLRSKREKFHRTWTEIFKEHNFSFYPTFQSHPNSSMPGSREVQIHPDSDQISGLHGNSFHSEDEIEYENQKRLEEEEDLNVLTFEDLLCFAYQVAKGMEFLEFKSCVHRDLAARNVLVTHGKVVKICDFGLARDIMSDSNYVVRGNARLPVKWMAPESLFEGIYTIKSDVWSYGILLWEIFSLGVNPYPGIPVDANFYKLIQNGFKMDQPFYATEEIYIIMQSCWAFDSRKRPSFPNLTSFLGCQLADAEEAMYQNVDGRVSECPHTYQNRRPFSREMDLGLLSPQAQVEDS

C[C@@H]1CN(c2cc(-c3nn(C)c4ccc(OC5(C)CC5)cc34)ncn2)C[C@H](C)O1 [MLi-2-NC]
inactive: [1]; [8] 96% | [2]; [8] 79% | [3]; [8] 100% | [4]; [8] 69% | [5]; [8] 83% | [6]; [8] 91% | [7]; [8] 100%

C[C@@H]1CN(c2cc(-c3n[nH]c4ccc(OC5(C)CC5)cc34)ncn2)C[C@H](C)O1 [MLi-2]
inactive: [1]; [9] 99% | [2]; [9] 100% | [3]; [9] 92% | [4]; [9] 91% | [5]; [9] 100% | [6]; [9] 85% | [7]; [9] 73%
